Test results from patent publication US20110313672A1, “CELLULAR ANTIOXIDANT ACTIVITY (CAA) ASSAY” (CORNELL UNIVERSITY, priority 2007, published 2011).
Values joined by “and” are separate entries in the source; they are usually repeats but may differ in a detail not shown here. Identical values can stand only once. Like-named read-outs stand apart in the source and are kept apart here.

How the values were obtained:
HepG2 cells = test: Cellular antioxidant activity (CAA) assay: inhibition of peroxyl radical-induced DCFH oxidation; format: cell-based, human; conditions: for EC50: mean ± SD, n=3; for CAA value: Example 1, pure compounds, EC50 converted to quercetin equivalents
[1] = Oxygen radical absorbance capacity (ORAC) assay; conditions: Example 3; flavonoids; mean ± SD, n ≧ 3
Method: The peroxyl radical scavenging efficacy of selected fruits was measured using the ORAC assay (Prior, R. L., et al (2003) J. Agric. Food Chem. 51:3273-3279). Briefly, 20 μL of blank, Trolox standard, or fruit extracts in 75 mM potassium phosphate buffer, pH 7.4 (working buffer), was added to triplicate wells in a black, clear-bottom, 96-well microplate. The triplicate samples were distributed throughout the microplate and were not placed side-by-side, to avoid any effects on readings due to location. In addition, no outside wells were used, as use of those wells results in greater variation. A volume of 200 μL of 0.96 μM fluorescein in working buffer was added to each well and incubated at 37° C. for 20 min, with intermittent shaking, before the addition of 20 μL of freshly prepared 119 mM ABAP in working buffer using a 12-channel pipetter. The microplate was immediately inserted into a Fluoroskan Ascent FL plate reader (ThermoLabsystems) at 37° C. The decay of fluorescence at 538 nm was measured with excitation at 485 nm every 4.5 min for 2.5 h. The areas under the fluorescence versus time curve for the samples minus the area under the curve for the blank were calculated and compared to a standard curve of the areas under the curve for 6.25, 12.5, 25, and 50 μM Trolox standards minus the area under the curve for blank. ORAC values were expressed as mean micromoles of Trolox equivalents (TE) per 100 g of fruit±SD for triplicate data from one experiment.
ORAC measurements were performed as described herein in Example 2.

EC50 (HepG2 cells; Example 1, Table 1, PBS wash, pure phytochemical compounds, read-out: EC50 for inhibition of peroxyl radical-induced DCFH oxidation): 15.8 ± 0.4 µM
EC50 (HepG2 cells; Example 1, Table 1, no PBS wash, pure phytochemical compounds, read-out: EC50 for inhibition of peroxyl radical-induced DCFH oxidation): 14 ± 1 µM
EC50 (HepG2 cells; Example 3, Table 7, PBS wash, flavonoids, read-out: EC50): 12.8 ± 0.9 µM
EC50 (HepG2 cells; Example 3, Table 7, no PBS wash, flavonoids, read-out: EC50): 12.3 ± 0.7 µM
Substance: (−)-epigallocatechin gallate [EGCG]
CAA value (HepG2 cells; PBS wash): 32.3 ± 0.9 µmol QE/100 µmol
CAA value (HepG2 cells; no PBS wash): 42.2±3.1 μmol QE/100 μmol
CAA (HepG2 cells; Example 3, Table 7, PBS wash): 63.8 ± 4.4 μmol of QE/100 μmol
CAA (HepG2 cells; Example 3, Table 7, no PBS wash): 72.1 ± 3.8 μmol of QE/100 μmol
ORAC [1]: 4.55±0.40 μmol of TE/μmol and 4.55 ± 0.40 fgh μmol of TE/μmol
